Source: publication PMC6476888, “Design and synthesis of anticancer 1-hydroxynaphthalene-2-carboxanilides with a p53 independent mechanism of action” (Scientific Reports, 2019)
Where two headings read alike, the source gives them in different places.

Columns and labels:
CT-DNA = test: Spectrophotometric DNA intercalation assay; type: binding, calf; details: for Changes in absorbance: bound to CT-DNA (18 µM), 1.5 h 37 °C, Tris-HCl pH 7.9; for % hypochromism / Δε: bound to CT-DNA; for red shift: wavelengths of maximum absorption, individual vs DNA-bound compound
From the text: The fused aromatic rings of the naphthalene moiety and halogen substituents in aniline may guarantee good intercalating properties[71],[72]. On the other hand, the intercalation of DNA may explain the high activity against both the wild-type and p53 mutants as was reported for a series of styrylquinolines. Binding to DNA causes the bases to mismatch or cleave, which results in the arrest of the cell cycle and apoptosis. The effectiveness of the p53 system is one of the most important factors in the response to therapy. We tested the intercalating properties of the selected compounds in a spectrophotometric assay on calf-thymus DNA. The absorption spectra of the tested compounds in the absence and presence of CT-DNA are presented in Figure S1 Supplementary Information and the spectral properties with doxorubicine and CP-31398 are summarized in Table 2.
For the DNA binding studies, Calf-thymus DNA (CT-DNA) was purchased from Sigma- Aldrich. The lyophilized CT-DNA was dissolved in 10 mM Tris-HCl, pH 7.9, mixed gently and left overnight at 4 °C. The purity of the CT-DNA solution was determined by measuring the ratio of UV absorbance at 260 and 280 nm. […] Then, the concentration of CT-DNA was determined from the absorbance at 260 nm using an extinction coefficient of 6600 M^−1cm^−1. The tested compounds including DOX and CP-31398 were dissolved to a concentration of 8.35 mM in DMSO, which was then used as the stock solution for preparing the various concentrations (25, 12.5, 6 and 3 µM) in 1 mL in 10 mM of Tris-HCl (pH 7.9). Afterwards, 18 µM CT-DNA was added to the prepared solutions, which were incubated for 1.5 h at 37 °C with occasional vortexing. The absorption spectra were measured using a Hitachi U-2900 spectrophotometer in the range of 200–500 nm. All absorption spectra were imported into OriginPro 8.0 and compared.

NHDF = test: Cytotoxicity (MTS, 72 h) against normal human fibroblasts; type: cell-based; details: MTS, 72 h incubation
Method: (§1) All of the synthesized compounds were tested for their antiproliferative activity against human colon cancer (Table 1). We used both the wild-type and p53-negative cell lines (HCT116^+/+ and HCT116^−/−, respectively). Mutations in the TP53 gene are present in more than 50% of all cancers and often specifically correspond to a difficult therapy, resistance or a bad prognosis[60]–[63]. The active compounds were additionally tested for their cytotoxicity against normal human fibroblasts. We used 5-fluorouracil (5-FLU), doxorubicin (DOX) and CP-31398 as the standards. 5-FLU is one of the first antimetabolites that was dedicated for cancer treatment and is still used for a wide range of cancers including colon carcinoma. Doxorubicin is a DNA topoisomerase II poison with a high intercalating potency, which is able to induce apoptosis through the p53 pathway. Although DOX has been described as being ineffective in some p53 mutants, its level of activity against the p53 null lines is similar. CP-31398, on the other hand, is an experimental drug in the clinical phase and its mechanism of action is through the reactivation some of p53 mutants. Its activity against the p53 null cell lines is greatly diminished and is actually lower than its cytotoxicity.
(§2) The human colon cancer cell line HCT116 wild type was obtained from ATCC and the normal human fibroblast cell lines NHDF were obtained from PromoCell. The human colon cancer cell line HCT116 with a p53 deletion (p53^−/−) was kindly provided by Prof. M. Rusin from the Maria Sklodowska-Curie Memorial Cancer Centre and Institute of Oncology in Gliwice, Poland[89]. The cells were grown as monolayer cultures in Dulbecco’s modified Eagle’s medium with the antibiotic gentamicin (200 μL/100 mL medium) in 75 cm^2 flasks (Nunc). The DMEM for the HCT116 were supplemented with 12% heat-inactivated fetal bovine serum (Sigma-Aldrich, St. Louis, MO, USA) and for NHDF with 15% non-inactivated fetal bovine serum (Sigma Aldrich, St. Louis, MO, USA). The cells were cultured under standard conditions at 37 °C in a humidified atmosphere at 5% CO2.
(§3) The cells were seeded in 96-well plates (Nunc) at a density of 5,000 cells/well (HCT116) and 4,000 cells/well (NHDF) and incubated at 37 °C for 24 h. The assay was performed following a 72 h incubation with varying concentrations of the compounds that were being tested. Then, 20 µL of CellTiter 96® AQueous One Solution-MTS (Promega) was added to each well (with 100 µL DMEM without phenol red) and incubated for 1 h at 37 °C. The optical densities of the samples were analyzed at 490 nm using a Synergy 4 multi-plate reader (BioTek, Winooski, VT, USA). The results are expressed as the percentage of the control and were calculated as the inhibitory concentration (IC50) values (using a GraphPad Prism 7). The IC50 parameter was defined as the compound concentration that was necessary to reduce the proliferation of cells to 50% of the untreated control. Each individual compound was tested in triplicate in a single experiment with each experiment being repeated three or four times.

HCT116^+/+ = test: Antiproliferative assay (MTS, 72 h) on HCT116 wild type; type: cell-based, human; details: MTS, 72 h incubation, read-out: Activity IC50 HCT116^+/+
Method: as §1, §2, §3

HCT116^−/− = test: Antiproliferative assay (MTS, 72 h) on HCT116 with p53 deletion; type: cell-based, human; details: for IC50: MTS, 72 h incubation
Method: as §1, §2, §3

[1] = system: p53/p21 system in the HCT116 cells; test: Western blot of p53/p21 activation; type: cell-based, human; details: wild-type HCT116, 12 and 24 h
Method: Further exploration of the cell death model was performed by a western blot analysis of protein activation in response to incubation with the tested compound (Figs 6, 7). […] The proapoptotic activation of the p53/p21 system was noticeable after the first 12 hours and then became stronger after 24 h. This effect was not observed in the case of the p53 null cells, which were unable to synthesize this protein.
The HCT116 cells were seeded in 3-cm Petri dishes (Nunc) at a density of 0.5·10^6 cells/well and incubated overnight. […] The cells were harvested by trypsinization and washed with cold PBS. Next, the cells were centrifuged and suspended in an RIPA buffer (Thermo-Fisher Scientific) containing Halt Protease Inhibitor Cocktail (Thermo-Fisher Scientific), Halt Phosphatase Inhibitor Cocktail (Thermo-Fisher Scientific) along with 0.5 M EDTA and lysed for 20 min on ice. Then, the lysates were sonicated, centrifuged at 10,000 rpm for 10 min at 4 °C and the supernatants were collected for further analysis. The protein concentration was determined using a Micro BCA™ Protein Assay Kit (Thermo-Fisher Scientific, Waltham, MA, USA c) according to the manufacturer’s instructions. Equal amounts of the proteins (20 μg) were electrophoresed on SDS-Page gels and transferred onto nitrocellulose membranes. The membranes were blocked in 5% non-fat milk prepared in PBS containing 0.1% Tween-20 (TPBS) for 1 h. After blocking, the membranes were incubated with specific primary antibodies: p21^Waf1/Cip1, p53, cytochrome c, caspase-8, caspase-9, AIF, PARP, GAPDH and β-Actin overnight at 4 °C, and then washed and incubated with horseradish peroxidase (HRP)-conjugated secondary antibodies for 1 h at room temperature. All of the antibodies were purchased from CellSignaling (Danvers, MA, USA) and were diluted 1:1000 in 5% milk in TPBS. Finally, the membranes were washed and incubated with a SuperSignal™ West Pico Chemiluminescent Substrate (Thermo-Fisher Scientific). The chemiluminescence signals were captured using a ChemiDoc™ XRS+ System (Bio-Rad Laboratories, Hercules, CA, USA). The experiments were performed at least three times. Densitometric analysis was performed using ImageJ 1.41 software (Wayne Rasband, National Institutes of Health, USA).

[2] = for CP-31398 first value (312 nm band)

SMILES	IC50 (NHDF; Homo sapiens, NHDF) [µM]	IC50 (HCT116^+/+; Homo sapiens, HCT-116) [µM]	melting point [°C]	IC50 (HCT116^−/−; Homo sapiens, HCT-116) [µM]	further results
COc1ccc(/C=C/c2nc(NCCCN(C)C)c3ccccc3n2)cc1 [CP-31398, reference compound]					Changes in absorbance (CT-DNA): hypochromism; % hypochromism (CT-DNA; [2]): 41.4%; Δε (CT-DNA; [2]): 1515.6 M⁻¹ cm⁻¹; % hypochromism (CT-DNA; second value (350 nm band)): 37.4%; Δε (CT-DNA; second value (350 nm band)): 1693.3 M⁻¹ cm⁻¹; red shift (CT-DNA): 0 nm; IC50 (NHDF): 12.3 ± 0.54 µM; IC50 (HCT116^+/+): 18.6 ± 0.92 µM; IC50 (HCT116^−/−): 26.3 ± 1.41 µM
O=C(Nc1c(Br)cc(C(F)(F)F)cc1Br)c1ccc2ccccc2c1O [6l]	20.4 ± 1.16	9.37 ± 0.47	183 to 186	6.81 ± 2.66	
O=C(Nc1cc(F)c(C(F)(F)F)cc1F)c1ccc2ccccc2c1O [4z]	18.4 ± 0.91	4.22 ± 0.87	229 to 231	2.82 ± 0.77	
COc1cc([N+](=O)[O-])ccc1NC(=O)c1ccc2ccccc2c1O [2g]	7.53 ± 2.97	2.62 ± 0.85	250 to 253	3.73 ± 1.09	
O=C(Nc1ccc(F)cc1Cl)c1ccc2ccccc2c1O [5m]	> 25	7.57 ± 2.16	162 to 166	8.29 ± 2.92	
COc1cccc2c1C(=O)c1c(O)c3c(c(O)c1C2=O)C[C@@](O)(C(=O)CO)C[C@@H]3O[C@H]1C[C@H](N)[C@H](O)[C@H](C)O1 [DOX, doxorubicin, reference compound]	3.38 ± 1.29	0.34 ± 0.04		0.38 ± 0.03	p21 protein amount [1]: dramatic increase; p53 protein amount / activation [1]: dramatic increase; Changes in absorbance (CT-DNA): hypochromism; % hypochromism (CT-DNA; [2]): 34.2%; Δε (CT-DNA; [2]): 3235.6 M⁻¹ cm⁻¹; red shift (CT-DNA): 10 nm
O=C(Nc1c(F)c(F)cc(F)c1F)c1ccc2ccccc2c1O [4m]	> 25	12 ± 0.92	160 to 163	> 25	
O=C(Nc1cc(F)cc(F)c1)c1ccc2ccccc2c1O [4h]	9.87 ± 0.66	1.79 ± 0.44	199 to 200	2.24 ± 0.3	
O=C(Nc1cc(Cl)ccc1F)c1ccc2ccccc2c1O [4s]	> 25	8.66 ± 1.61	169 to 171	10.7 ± 1.73	
O=C(Nc1cc(F)c(F)c(F)c1)c1ccc2ccccc2c1O [4l]	10 ± 0.54	1.19 ± 0.31	242 to 247	1.42 ± 0.25	
O=C(Nc1cc(F)cc(C(F)(F)F)c1)c1ccc2ccccc2c1O [4×]	24.1 ± 2.02	9.01 ± 0.45	165 to 167	> 25	
O=C(Nc1c(F)c(F)c(F)c(F)c1F)c1ccc2ccccc2c1O [4n]	> 25	11.6 ± 0.74	230 to 234	17.5 ± 0.76	
O=C(Nc1ccc(F)cc1F)c1ccc2ccccc2c1O [4d]	> 25	6.55 ± 0.83	185 to 187	11.4 ± 1.92	
O=C(Nc1cc(F)ccc1F)c1ccc2ccccc2c1O [4e]	> 25	4.76 ± 0.76	153 to 155	15.1 ± 6.75	
O=C(Nc1ccc(Br)cc1F)c1ccc2ccccc2c1O [4r]	> 25	15 ± 4.82	172 to 174	3.43 ± 0.69	selectivity towards the p53 null cells (HCT116 p53^−/− vs wild type) (HCT116^−/−): roughly 4.5 fold
O=C(Nc1ccc(Cl)c(C(F)(F)F)c1)c1ccc2ccccc2c1O [7n]	> 25	9.66 ± 3.17	173 to 175	18.7 ± 2.78	
COc1ccc([N+](=O)[O-])cc1NC(=O)c1ccc2ccccc2c1O [2h]	> 25	7.05 ± 1.75	215 to 218	7.42 ± 2.05	
O=C(Nc1cccc(Cl)c1F)c1ccc2ccccc2c1O [4o]	> 25	8.78 ± 2.18	172 to 174	6.76 ± 2.37	
O=C(Nc1cc(Br)ccc1F)c1ccc2ccccc2c1O [4t]	> 25	11.9 ± 1.28	174 to 177	14 ± 2.2	
O=C(Nc1ccc(Br)c(F)c1)c1ccc2ccccc2c1O [4v]	> 25	10.9 ± 2.69	199 to 202	12.4 ± 1.11	selectivity towards the p53 null cells (HCT116 p53^−/− vs wild type) (HCT116^−/−): not selective
O=C(Nc1cc(F)ccc1Br)c1ccc2ccccc2c1O [6j]	> 25	7.78 ± 1.37	187 to 190	5.83 ± 1.06	
O=C(Nc1ccc(C(F)(F)F)cc1Br)c1ccc2ccccc2c1O [6i]	18.4 ± 1.23	3.58 ± 1.25	168 to 170	2.19 ± 0.67	
O=C(Nc1ccc(F)c(C(F)(F)F)c1)c1ccc2ccccc2c1O [7m]	> 25	12 ± 3.68	164 to 166	14.5 ± 4.53	
